Data taken from patent US9823232B2, “Ligand for detection of chromium (III) and a process for the preparation thereof” (COUNCIL OF SCIENTIFIC & INDUSTRIAL RESEARCH, priority 2013, dated 2017).
Entries after “also recorded” stand apart in the source; their conditions may differ.

How the values were obtained:
[1] = aqueous medium at RT; cited from earlier work
[2] = predominantly organic medium; cited from earlier work
[3] = Absorption (UV-Vis) spectral titration with B-H plot in aqueous Triton X 100 / Tris buffer pH 7.2; format: binding
Procedure: (§1) The association constant (Kabs) of 2.4×10^3 M^−1 for the L1-Cr^3+ formation is evaluated from the absorption titration and B-H plot data (FIG. 3). A good linear fit data supported the 1:1 binding stoichiometry. For emission titration, a significant increase in emission intensity at 583 nm is observed with an increase in concentration of Cr^3+ in aqueous medium. […] The 1:1 binding stoichiometry is further confirmed from Jobs plot and presence of signal for m/z at 616.87 (Calc 616.75) in FAB-MS analysis of a mixture of L1 (1.59×10^-5 M) and (9.5×10^−5 M) Cr(ClO4)3 for [L1+Cr^3+].
(§2) A stock solution of the receptor L1 (6.9×10^−4 M) was prepared in acetonitrile medium and 57 μL of this stock solution was added to 2.5 ml of 0.4 mM TX100 in Tris-HCL aqueous buffer medium having solution pH 7.2 to make the effective ligand concentration of 1.59×10^−5 M. The solution was used for all the photophysical studies. Cr^3+ stock solution (4.75×10^−3 M) was prepared in pure aqueous medium and was used for all studies. Emission titrations were also performed as a function of [TX100](0.1 mM, 0.23 mM, 0.32 mM, 0.4 mM, 0.6 mM) in Tris-HCl buffer medium of pH 7.2 by monitoring the increase in emission intensity (using λExt=530 nm, λMon=583 nm and slit width 2/2 nm) on binding of L1 to Cr^3+ for optimizing the maximum enhancement of the emission intensity. The relative fluorescence quantum yields (t) were estimated using equation 1 for different concentration of TX100 (0.1 mM, 0.23 mM, 0.32 mM, 0.4 mM, 0.6 mM) in Tris-HCl buffer medium (having solution pH of 7.2) and by using the Rhodamine B (φf=0.3 in aqueous medium at RT) as a reference. φf=φf′(Isample/Istd)(Astd/Asample)(η^2sample/η^2std) Eq. 1 where, φf′ was the absolute quantum yield for the rhodamine B and was used as reference; Isample and Istd are the integrated emission intensities; Asample and Astd are the absorbances at the excitation wavelength, and ηsample and ηstd are the respective refractive indices. Computational Methodology:
(§3) Formation of Cr^3+.L1 was also confirmed from the result “Formation of Cr3+.L1 was also confirmed from the result of FAB MS study. Signal at m/z value of 616.87 (Calc 616.75) for Cr3+.L1”.

[4] = Uv-vis and emission titrations in acetonitrile medium; format: binding
Procedure: (§4) To envisage the adverse role of high solvation enthalpy of Cr(III) in aqueous medium, similar Uv-vis and emission titrations were carried out in acetonitrile medium using ([Cr(III)]=(0-1.93×10^−4)M; and [L1]=(1.59×10^−5 M) in CH3CN) and the evaluated formation constant for Cr^3+.L1 in acetonitrile was (Ka^Abs=(1.1±0.03)·10^6 M^−1, Ka^Ems=(1.0±0.02)·10^6 M^−1 using λExt: 530 nm and λMon: 583 nm for emission titration). The binding affinity of L1 towards Cr^3+ was evaluated as Ka^ITC=(1.6±0.02)·10^6 M^−1 in acetonitrile medium at 25° C. using ITC experiments. […] Thermodynamic parameters were obtained from ITC studies (ΔG (−(8.48±0.02) kcal mol^−1), ΔH ((−20.8±0.4) kcal mol^−1) and ΔS (−41.4±0.05) cal mol^−1) (all symbols are used according to standard terminology).

[5] = Emission (fluorescence) spectral titration with B-H plot in aqueous Triton X 100 / Tris buffer pH 7.2; format: binding
Procedure: as §1, §2, §3
3.28×10^−3 M Cr(III) solution in water is prepared and then it is gradually added to a solution of the ligand L1, where effective ligand concentration is 1.59×10^−5 M in a Tris buffer with solution pH of 7.2 having 0.32 mM Triton X 100. Uv-vis and luminescence spectra are recorded in absence and presence of [Cr(III)]. In emission spectra a 200 fold increase in spectral intensity at 583 nm (λext=530 nm and slit 2/2) is observed, while a simultaneous change in solution colour is observed from colourless to pink red (please refer to FIGS. 4 and 6).

[6] = Selectivity towards various metal ions by absorption and emission spectra
Procedure: To check the selectivity of Receptor L1 towards various metal ions like Li^+, Na^+, K^+, Cs^+, Mg^2+, Ca^2+, Ba^2+, Sr^2+, Zn^2+, Co^3+, Cu^2+, Ni^2+, Fe^2+, Pb^2+, Hg^2+ change in electronic as well as emission spectra were examined in 0.32 mM Triton X 100 in tris (5 mM, 25 mM NaCl) buffer medium at PH 7.2.
However only in presence of Cr^3+, a strong absorption band at 562 nm and intense emission band at 583 nm (for λext=530 nm) are observed. These changes are also associated with simultaneous visually detectable change in solution colour from colourless to pink red.
A solution of the perchlorate salts of the respective ion (Li^+, Na^+, K^+, Cs^+, Ca^2+, Mg^2+, Ba^2+, Sr^2+, Fe^2+, Ni^2+, Co^2+, Cu^2+, Mn^2+, Cd^2+, Pb^2+, Ba^2+, Zn^2+, Sr^2+, Hg^2+ and Cr^3+) and nitrate salts of lanthanides ions (Tb^3+, Ho^3+, Ce^3+, Sm^3+, Rb^+, Pr^3+, Eu^3+, Gd^3+, Nd^3+, Dy^3+, Tm^3+, Er^3+, Yb^3+) in pure aqueous medium were used for all studies. The effective final concentrations of all metal salts were maintained at 1.62×10^−4 M.
A stock solution of the receptor L1 (6.9×10^−4 M) was prepared in acetonitrile medium and 57 μL of this stock solution was added to 2.5 ml of 0.4 mM TX100 in Tris-HCL aqueous buffer medium having solution pH 7.2 to make the effective ligand concentration of 1.59×10^−5 M. The solution was used for all the photophysical studies. […]

[7] = Relative fluorescence quantum yield w.r.t. Rhodamine B; format: physicochemical; details: with Cr^3+
Procedure: as §2, with “indices.” for “indices. Computational Methodology:”

[8] = Isothermal Titration Calorimetry (ITC) in acetonitrile at 25° C.; format: binding
Procedure: FIG. 10 depicts Isothermal Titration Calorimetry (ITC) titration profile for the binding of Cr^3+ to receptor L1 at 25° C. in acetonitrile; Top plot: raw data for the sequential 2 μl injection of Cr^3+ (1.2×10^−3 M) into solution of L1 (2.0×10^−4 M) and bottom plot of the heat evolved (kcal per mole) of Cr^3+ added.
5.0 mM Tris-HCl aq. buffer solution was used for maintaining solution pH, unless mentioned otherwise. ESI-MS measurements were performed using a Micromass QTof-Micro instrument. FT-IR spectra were recorded as KBr pellets using a Perkin Elmer Spectra GX 2000 spectrometer. ^1H and ^13C NMR spectra were recorded on Bruker 500 MHz FT NMR (model: Avance-DPX 500). Electronic spectra were recorded with a Varian Cary 500 Scan UV-Vis-NIR Spectrophotometer, Isothermal Titration Calorimetry studies were performed in Microcal iTC200, while emission spectra were recorded using either Edinburgh Instrument Xe-900 Spectrofluorometer or PTI. For all spectroscopic studies in aqueous buffer medium as well as for studies with plant/algal cells, L1 self-assembled inside the miceller structure of TX100 was used, unless mentioned otherwise.
as §4

[9] = [Triton X 100] 0.23 mM, aqueous medium
[10] = [Triton X 100] 0.32 mM, Tris buffer pH 7.2

CCN(CC)c1ccc2c(-c3ccccc3C(=O)O)c3ccc(=[N+](CC)CC)cc-3oc2c1.[Cl-] [Rhodamine B]
Fluorescence quantum yield φf (reference) [1]: 0.3

O=c1ccc2cc(/N=C/c3c4ccccc4cc4ccccc34)ccc2o1 [Receptors 3]
Selectivity towards Cr(III) [2]: high selectivity towards Cr(III)

C=CCN(CC=C)CCN1C(=O)c2ccccc2C12c1ccc(N(CC)CC)cc1Oc1cc(N(CC)CC)ccc12 [Ligand L1]
Binding Constant, Uv-Vis Spectroscopic Method [3, 9]: 1960 M⁻¹
Binding Constant, Uv-Vis Spectroscopic Method [3, 10]: 2400 M⁻¹
Binding Constant, Uv-Vis Spectroscopic Method ([3]; [Triton X 100] 0.4 mM, aqueous medium): 3200 M⁻¹
Ka^Abs, binding constant for formation of Cr^3+.L1 ([3]; aq. buffer medium pH 7.2, absorption titration, B-H plot): 3.2±0.2)·10^3 M^−1
Ka^Abs, formation constant for Cr^3+.L1 [4]: (1.1±0.03)·10^6 M^−1
Ka^Ems, formation constant for Cr^3+.L1 ([4]; λExt 530 nm, λMon 583 nm): (1.0±0.02)·10^6 M^−1
Increase in emission spectral intensity at 583 nm on adding Cr(III) ([5]; L1 1.59×10^−5 M, 0.32 mM Triton X 100, Tris pH 7.2, λext 530 nm): 200 fold
Binding Constant, Fluorescence Spectroscopic Method [5, 9]: 2000 M⁻¹
Binding Constant, Fluorescence Spectroscopic Method [5, 10]: 2830 M⁻¹
Binding Constant, Fluorescence Spectroscopic Method ([5]; [Triton X 100] 0.4 mM, Tris pH 7.2): 3250 M⁻¹
Ka^Ems, binding constant for formation of Cr^3+.L1 ([5]; aq. buffer medium pH 7.2, emission titration, B-H plot): (3.3±0.2)·10^3 M^−1
Selectivity for Cr(III) over other metal ions (absorption 562 nm, emission 583 nm, colour) ([6]; Triton X 100 in Tris buffer pH 7.2, alkali, alkaline earth and transition metal ions): selective/specific for Cr (III); also recorded: no such changes are observed
Interference of Cr(VI) ([6]; pure aqueous medium): does not have any interferences of Cr(VI) at all
Quantum yield in water w.r.t. Rhodamine B ([7]; [Triton X 100] 0.23 mM): 0.185
Quantum yield in water w.r.t. Rhodamine B ([7]; [Triton X 100] 0.32 mM): 0.211
Quantum yield in water w.r.t. Rhodamine B ([7]; [Triton X 100] 0.4 mM): 0.22
Ka^ITC, binding affinity towards Cr^3+ [8]: (1.6±0.02)·10^6 M^−1
ΔH of binding ([8]; ITC): -20.8 ± 0.4 kcal/mol
ΔS of binding ([8]; ITC): -41.4 ± 0.05 cal/(mol·K)
